Values quoted from earlier work in patent publication US20030170332A1, “Flavonoid extract” (Enzo Nutraceuticals Limited., priority 2001, published 2003).

Key:
[1] = tested on: DNA damage; conditions: for Protection against DNA damage: in vivo (Duthie et al. 1997; Sierens et al. 2001)
[2] = tested on: carbonyl levels of immunoglobulin

| Structure (SMILES) | Protection against DNA damage [1] | DNA protection on increasing intake in the diet ([1]; in vivo (Beatty et al. 2000)) | Effect on protein oxidation of immunoglobulin ([2]; 5 weeks supplementation, 400 mg/day) | Carbonyl levels of immunoglobulin ([2]; 10 and 15 weeks supplementation, subjects with low baseline ascorbate, not in those with normal base line ascorbate) |
| --- | --- | --- | --- | --- |
| Oc1ccc([C@H]2COc3cc(O)ccc3C2)cc1 [equol] | did protect against DNA damage |  |  |  |
| O=c1c(-c2ccc(O)cc2)coc2cc(O)cc(O)c12 [genistein] | did protect against DNA damage |  |  |  |
| O=c1c(O)c(-c2cc(O)c(O)c(O)c2)oc2cc(O)cc(O)c12 [myricetin] | did protect against DNA damage |  |  |  |
| O=c1c(O)c(-c2ccc(O)c(O)c2)oc2cc(O)cc(O)c12 [quercetin] | did protect against DNA damage | did not result in increased DNA protection |  |  |
| O=C1O[C@H]([C@@H](O)CO)C(O)=C1O [vitamin C] |  |  | no significant effect | significantly reduced |
